Where a name gives a salt, the structure may show the parent alone.
Target: T1, Bradykinin receptor (Cavia porcellus, UniProt O70526)
T1 construct: The ileum was removed and homogenized in buffer; from tissue; host or cells: guinea pig ileum, crude membrane suspension
T1 sequence (O70526 1-372): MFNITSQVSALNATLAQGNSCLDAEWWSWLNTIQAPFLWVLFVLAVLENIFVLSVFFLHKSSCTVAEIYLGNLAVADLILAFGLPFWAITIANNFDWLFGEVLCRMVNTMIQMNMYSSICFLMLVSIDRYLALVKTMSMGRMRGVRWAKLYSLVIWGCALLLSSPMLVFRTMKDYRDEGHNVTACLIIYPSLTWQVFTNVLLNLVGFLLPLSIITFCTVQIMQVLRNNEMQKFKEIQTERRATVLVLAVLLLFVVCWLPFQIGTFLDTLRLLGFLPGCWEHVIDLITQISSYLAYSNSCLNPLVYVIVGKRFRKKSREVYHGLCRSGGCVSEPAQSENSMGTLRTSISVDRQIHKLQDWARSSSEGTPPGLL
Test: 3H-Bradykinin receptor binding (guinea pig ileum crude membrane)
Conditions: concentration: 1 × 10^-6 M, 3H-Bradykinin 0.06 nM, room temperature, 60 minutes
Description: ^3 H-Bradykinin receptor binding
(a) Crude ileum membrane preparation
Male Hartly strain guinea pigs were sacrificed by decapitation. The ileum was removed and homogenized in buffer (50 mM trimethylaminoethanesulfonic acid (TES), 1 mM 1,10-phenanthroline pH 6.8). The homogenate was centrifuged (1000×g, 20 minutes) to remove tissue clumps and the supernatant was centrifuges (100,000×g, 60 minutes) to yield a pellet. The pellet was resuspended in buffer (50 mm TES, 1 mM 1,10-phenanthroline, 140 mg/l bacitracin, 1 mM dithiothreiol, 0.1% bovine serum albumin pH 6.8) and homogenized with a glass-teflon homogenizer to yield suspension which was referred to as crude membrane suspension. The obtained membrane suspension was stored at -80° C. until use.
(b) ^3 H-Bradykinin binding to the membrane
The frozen crude membrane suspension was thawed. In binding assays, ^3 H-Bradykinin (0.06 nM) and drug (1×10^-6 M) were incubated with 50 μl of the membrane suspension at room temperature for 60 minutes in a final volume of 250 μl. Separation of receptor-bound from free ^3 H-Bradykinin is achieved by immediate filtration under vacuum and washed three times with 5 ml of ice-cold buffer (50 mM Tris-HCl pH 7.5). Non-specific binding was defined as binding in the presence of 0.1 μM Bradykinin. The radioactivity retained on rinsed filters was determined by a liquid-scintillation counter.

Compound	inhibition at 1 µM [%]
Cc1ccc2cccc(OCc3c(Cl)ccc(N(C)C(=O)CNC(=O)/C=C/c4ccc(OCCN(C)C)cc4)c3Cl)c2n1 [41-(53), 8-[2,6-Dichloro-3-[N-[4-[2-(N,N-dimethylamino)ethoxy]cinnamoylglycyl)-N-methylamino]benzloxy]-2-methylquinoline dihydrochloride]	99
Cc1ccc2cccc(OCc3c(Cl)ccc(N(C)C(=O)CNC(=O)Nc4cccc(N)c4)c3Cl)c2n1 [41-(12), 8-[3-[N-[N'-(3-Aminophenyl)ureidoacetyl]-N-methylaminol-2,6-dichlorobenzyloxy]-2-methylquinolinedihydrochloride]	95
Cc1ccc2cccc(OCc3c(Cl)ccc(N(C)C(=O)CNC(=O)/C=C/c4ccc(N)cc4)c3Cl)c2n1 [35-(3), 8-[3-[N-(4-Aminocinnamoylglycyl)-N-methylamino]-2,6-dichlorobenzyloxy]-2-methylquinoline]	99
CCNC(=O)NCC(=O)N(C)c1ccc(Cl)c(COc2cccc3c(OC)cc(C)nc23)c1Cl [41-(64), 8-[2,6-Dichloro-3-[N-(N'-ethylureidoacetyl)-N-methylamino]benzyloxy]-4-methoxy-2-methylquinoline hydrochloride]	95
CCC(=O)Nc1cccc(NC(=O)NCC(=O)N(C)c2ccc(Cl)c(COc3cccc4ccc(C)nc34)c2Cl)c1 [57 (hydrochloride), 8-[2,6-Dichloro-3-[N-methyl-N-[N'-(3-propionamidophenyl)ureidoacetyl]amino]benzyloxy]-2-methylquinoline]	99

Results, then the compound that gave them:

inhibition at 1 µM [%]	Compound
98	CCc1cc(Cl)c2cccc(OCc3c(Cl)ccc(N(C)C(=O)CNC(=O)Nc4cccc(C(C)=O)c4)c3Cl)c2n1 [29-(36), 8-[3-[N-[N'-(3-Acetylphenyl)ureidoacetyl]-N-methylamino]-2,6-dichlorobenzyloxy]-4-chloro-2-ethylquinoline hydrochloride]
100	Cc1ccc2cccc(OCc3c(Cl)ccc(N(C)C(=O)CNC(=O)Nc4cccc(C(=O)N(C)c5cccnc5)c4)c3Cl)c2n1 [34-(7), 8-[2,6-Dichloro-3-[N-methyl-N-[N'-[3-[N-methyl-N-(3-pyridyl)carbamoyl]phenyl]ureidoacetyl]amino]benzyloxy]-2-methylquinoline]
99	Cc1ccc2cccc(OCc3c(Cl)ccc(N(C)C(=O)CNC(=O)/C=C/c4ccc(NC(=O)c5ccccn5)cc4)c3Cl)c2n1 [58-(11) (dihydrochloride), 8-[2,6-Dichloro-3-[N-methyl-N-[4-(2-pyridine-carboxamido)cinnamoylglycyl]amino]benzyloxy]-2-methylquinoline]

From patent US5922711A, “8-substituted quinazolines, quinoxalines and benzopyridazines” (Fujisawa Pharmaceutical Co., Ltd., priority 1993, dated 1999)
